Data reported in PMC7607848 (Journal of medicinal chemistry, 2018).

Experiments:
hCB1 [1] = target: T1, hCB1 (Homo sapiens, UniProt P21554); assay: calcium-mobilization inverse-agonist assay in CHO-hCB1 cells; conditions: neutral antagonist or inverse agonist
[2] = tested on: alcohol-induced liver steatosis; conditions: past studies; cited from earlier work
[3] = tested on: CP55940-induced hypothermia (centrally located CB1 receptors); conditions: rodents; cited from earlier work
hCB1 [4] = target: T1, hCB1

T1 sequence (P21554 whole entry): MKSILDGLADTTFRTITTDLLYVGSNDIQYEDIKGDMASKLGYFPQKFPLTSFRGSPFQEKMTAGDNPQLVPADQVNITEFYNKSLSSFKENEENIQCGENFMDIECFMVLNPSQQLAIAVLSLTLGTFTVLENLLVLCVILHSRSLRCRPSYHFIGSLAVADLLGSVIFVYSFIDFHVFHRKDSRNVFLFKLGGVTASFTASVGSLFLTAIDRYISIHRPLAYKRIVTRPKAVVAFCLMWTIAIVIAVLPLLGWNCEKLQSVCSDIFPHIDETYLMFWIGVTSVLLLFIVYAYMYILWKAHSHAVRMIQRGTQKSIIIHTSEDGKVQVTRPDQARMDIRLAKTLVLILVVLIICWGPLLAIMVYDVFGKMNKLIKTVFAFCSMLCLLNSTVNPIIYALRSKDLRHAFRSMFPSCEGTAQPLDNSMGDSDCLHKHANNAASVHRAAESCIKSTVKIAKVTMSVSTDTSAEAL

Clc1ccc(-n2c(-c3ccccc3Cl)nc3c(N4CCN(Cc5ccccc5Cl)CC4)ncnc32)cc1 [Compound 25, 6-[4-(2-Chlorobenzyl)piperazin-1-yl]-8-(2-chlorophenyl)-9-(4-chlorophenyl)-9H-purine]
functional mode at hCB1 (hCB1 [1]): inverse agonist

Cc1c(C(=O)NN2CCCCC2)nn(-c2ccc(Cl)cc2Cl)c1-c1ccc(Cl)cc1 [Compound 1, Rimonabant]
reduction of alcoholic steatosis (AS) [2]: effective at reducing AS

CCNC1(C(N)=O)CCN(c2ncnc3c2nc(-c2ccccc2Cl)n3-c2ccc(Cl)cc2)CC1 [Compound 2, otenabant]
blocking of CP55940-induced reduction of body temperature [3]: known to block this effect

N#CC(c1ccccc1)N1CCN(c2ncnc3c2nc(-c2ccccc2Cl)n3-c2ccc(Cl)cc2)CC1 (stereo not shown) [Compound 21, {4-[8-(2-Chlorophenyl)-9-(4-chlorophenyl)-9H-purin-6-yl]-piperazin-1-yl}(phenyl)acetonitrile]
selectivity for hCB1 over hCB2 (binding assays) (hCB1 [4]): ~ 60 fold
